The results in this text go back to US7553823B2, “C-pyrazole A2A receptor agonists” (CV Therapeutics, Inc., priority 1999, dated 2009).

Assay [1] addresses A2A AdoR (Cavia porcellus, UniProt P46616). The assay can be described thus: Increase of coronary conductance in guinea pig isolated perfused hearts.
Method: (§3) Adult Sprague Dawley rats and Hartley guinea pigs of either sex weighing from 230 to 260 grams and 300 to 350 grams, respectively were used in this study. Animals were anesthetized by peritoneal injection of a cocktail containing ketamine and xylazine (ketamine 100 mg, xylazin 20 mg/ml). The chest was opened and the heart quickly removed. The heart was briefly rinse in ice-cold Krebs-Henseleit solution (see below), and the aorta cannulated. […] The heart was electrically paced at a fixed cycle length of 340 ms (250 beats/min) using a bipolar electrode place on the left atrium. The electrical stimuli were generated by a Grass stimulator (Model S48, W. Warwick, R.I.) and delivered through a Stimuli Isolation Unit (Model SIU5, Astro-Med, Inc., NY) as square-wave pulses of 3-msec in duration and amplitude of at least twice the threshold intensity.
Coronary perfusion pressure (CPP) was measured using a pressure transducer, connected to the aortic cannula via a T-connector positioned approximately 3 cm above the heart. Coronary perfusion pressure was monitored throughout the experiment and recorded either on a chart recorder (Gould Recorder 2200S) or a computerized recording system (PowerLab/4S, ADinstruments Pty Ltd, Australia). Only hearts with CPP ranging from 60 to 85 mmHg (in the absence of drugs) were used in the study. […]
The target of another assay is A2A adenosine receptor (Rattus norvegicus, UniProt P30543). The assay can be described thus: Reversal time of coronary vasodilation after bolus injection in rat isolated perfused hearts. To be noted: rat isolated perfused hearts, bolus into perfusion line.
A2A adenosine receptor, sequence (P30543 whole entry, the tested form may be a part): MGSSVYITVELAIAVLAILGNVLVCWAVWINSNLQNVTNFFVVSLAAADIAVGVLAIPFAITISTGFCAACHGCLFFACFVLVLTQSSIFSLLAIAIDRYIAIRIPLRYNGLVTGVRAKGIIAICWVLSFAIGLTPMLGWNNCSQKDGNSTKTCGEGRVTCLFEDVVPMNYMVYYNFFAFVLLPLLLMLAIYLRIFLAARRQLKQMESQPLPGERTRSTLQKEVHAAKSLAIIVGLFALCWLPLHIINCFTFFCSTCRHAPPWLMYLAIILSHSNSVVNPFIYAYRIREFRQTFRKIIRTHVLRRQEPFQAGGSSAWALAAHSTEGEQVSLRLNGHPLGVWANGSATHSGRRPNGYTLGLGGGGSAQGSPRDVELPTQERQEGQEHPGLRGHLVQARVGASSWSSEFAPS
Another assay addresses human A2A AdoR (Homo sapiens, UniProt P29274). The assay can be described thus: Competition binding, [3H]ZM241385 binding sites on HEK-hA2AAR cell membranes. To be noted: for Ki: HEK-hA2AAR Cells, [3H]ZM241385, Gpp(NH)p 100 μM.
Assay [2] concerns A2A AdoR. Briefly: Coronary blood flow and reversal time of coronary vasodilation in open-chest anesthetized pigs. To be noted: pig, intracoronary infusion 50 μg/kg/min.
Method: Farm pigs weighing 22-27 kg were used in this study. […] In addition, animals were used in accordance with the guidelines of the University of Kentucky Institutional Animal Care and Use Protocol.
Anesthesia was anesthetized with ketamine (20 mg/kg, i.m.) and sodium pentobarbital (15-18 mg/kg i.v.). Anesthesia was maintained with additional sodium pentobarbital (1.5-2 mg/kg, i.v.) every 15-20 minutes. Ventilation was maintained via a tracheotomy using a mixture of room air and 100% O2. Tidal volume, respiratory rate and fraction of O2 in inspired air were adjusted to maintain normal arterial blood gas (ABG) and pH values. […] Lactate Ringers solution was administered via an ear or femoral vein, at 5-7 ml/kg/min after a initial bolus of 300-400 ml. A catheter was inserted into the femoral artery to monitor arterial blood pressure and to obtain ABG samples.
The heart was exposed through a median sternotomy, and suspended in a pericardial cradle. Left ventricular pressure (LVP) was measured with a 5F high fidelity pressure sensitive tip transducer (Millar Instruments, Houston, Tex.) placed in the left ventricular cavity via the apex and secured with a purse string suture. A segment of the left anterior descending coronary artery (LAD), proximal to the origin of the first diagonal branch, was dissected free of, surrounding tissue. A transmit time perivascular flow probe (Transonic Systems Inc., Ithaca, N.Y.) was placed around this segment to measure coronary blood flow (CBF). Proximal to the flow probe a 24 g modified angiocatheter was inserted for intracoronary infusions. […] A2A AdoR agonists were dissolved in DMSO to produce stock concentrations of 1-5 mM, which were diluted in 0.9% saline and infused at rates of 1-1.5 ml/min. The A2A AdoR agonists were administered intracoronary. To maintain blood pressure constant, phenylephrine was administered intravenously. The phenylephrine stock solution (30 mM) was prepared in distilled water.
Prior to initiating the experiment, a 30-minute stabilization period followed the completion of all instrumentation. After obtaining the baseline hemodynamic data the first intracoronary infusion of an A2A ADOR agonist was initiated. Infusions were maintained for 4-5 minutes to allow LAD CBF to reach a steadystate, after which the infusion was terminated. The time to recovery of 50% (t 0.5) and 90% (t 0.9) of baseline CBF were recorded. Ten to 15 minutes after CBF returned to pre-drug values a second infusion with a different agonist was started. […] The effect of a maximum of three different agonists was determined in each experiment.
A further assay addresses A2A receptor (Sus scrofa, UniProt K9IW67). The assay can be described thus: Affinity for the A2A receptor in a pig striatum membrane prep (displacement of tritiated ZM 241385). It counts as binding. To be noted: pig striatal membranes, tritiated ZM 241385 2 nM, 23 C 2 h; read-out: A2a Ki. How it is done: Compounds of this invention were assayed to determine their affinity for the A2A receptor in a pig striatum membrane prep. Briefly, 0.2 mg of pig striatal membranes were treated with adenosine deaminase and 50 mM Tris buffer (pH=7.4) followed by mixing. […] After incubation at 23 C for 2 h, then the solutions were filtered using a membrane harvester using multiple washing of the membranes (3×). The filter disks were counted in scintillation cocktail affording the amount of displacement of tritiated ZM by the competitive binding compounds of this invention. Greater than a 5 point curve was used to generate IC50's and the number of experiments is indicated in the column marked in Table 1 below.

Assay [3] addresses A2A AdoR (Rattus norvegicus, UniProt P30543). The assay can be described thus: Increase of coronary conductance in rat isolated perfused hearts.
Method: as §3
Coronary perfusion pressure (CPP) was measured using a pressure transducer, connected to the aortic cannula via a T-connector positioned approximately 3 cm above the heart. Coronary perfusion pressure was monitored throughout the experiment and recorded either on a chart recorder (Gould Recorder 2200S) or a computerized recording system (PowerLab/4S, ADinstruments Pty Ltd, Australia). Only hearts with CPP ranging from 60 to 85 mmHg (in the absence of drugs) were used in the study.
One concentration was made from the stock solution by dilution into saline to yield solution of either 2×10^−4 or 2×10^−5 M. These solutions were injected into the perfusion line of the apparatus as boluses of 20 μl. In some experiments the solutions were placed into a 30 ml glass syringe and the drugs were infused at rates necessary to achieve the desired perfusate concentrations (e.g, 10, 100 nM, etc).
Hearts were instrumented for continuous recording of coronary perfusion pressure (A2A response) and atrioventricular (A-V) conduction time or S-H interval (A1 response).
Assay [4] addresses T1, A1 AdoR (Rattus norvegicus, UniProt P25099).
T1 construct: from tissue; host or cells: Sprague Dawley rat isolated perfused heart
T1 sequence (P25099 1-326): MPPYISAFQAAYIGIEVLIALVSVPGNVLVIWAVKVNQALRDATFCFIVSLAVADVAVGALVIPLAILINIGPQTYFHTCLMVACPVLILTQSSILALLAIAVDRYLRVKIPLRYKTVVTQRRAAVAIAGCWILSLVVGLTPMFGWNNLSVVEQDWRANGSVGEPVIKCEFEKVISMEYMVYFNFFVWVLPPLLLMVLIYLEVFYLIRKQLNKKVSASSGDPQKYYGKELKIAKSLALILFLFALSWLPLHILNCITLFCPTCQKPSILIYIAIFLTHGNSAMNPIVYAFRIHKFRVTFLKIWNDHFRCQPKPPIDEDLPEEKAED
Briefly: A-V nodal conduction time (negative dromotropic effect) in rat isolated perfused hearts. The following applies: Compound 18 0.1-30 μM, CVT510 100-400 nM. How it is done: In experiments in which A1 adenosine receptor-mediated negative dromotropic effect was measured, atrial and ventricular surface electrograms were recorded during constant atrial pacing. The effect of various adenosine receptor agonists on atrioventricular conduction time was determined as described previously by Jenkins and Belardinelli Circ. Res. 63: 97-116 (1988).
(§1) Rats and guinea pigs, of either sex weighing from 230 to 260 grams and 300 to 350 grams, respectively, were used in this study. Animals were anesthetized by peritoneal injection of a cocktail containing ketamine and xylazine (ketamine 100 mg, xylazine 20 mg/ml). The chest was opened and the heart quickly removed. The heart was briefly rinse in ice-cold Krebs-Henseleit solution (see below), and the aorta cannulated. […]
(§2) A1 adenosine receptor-mediated depression of A-V nodal conduction time (negative dromotropic effect) was measured. Atrial and ventricular surface electrograms in rats and H is bundle electrogram in guinea pigs, were recorded during constant atrial pacing. The effects of Compound 18 on atrioventricular conduction time and stimulus-to-His-bundle (S-H interval) were determined as described previously by Jenkins and Belardinelli (1988).
The effects of Compound 18 on coronary conductance (A2A effect) and atrioventricular conduction time or stimulus-to-His-bundle (S-H) interval (A1 effect) was then determined. […]

Assay [5] has as its system A2A AdoR. Briefly: Closing statement of Example 8 on potency and efficacy as A2A AdoR agonist coronary vasodilator (test not specified).
In assay [6] the target is T2, A1 AdoR (Cavia porcellus, UniProt P47745).
T2 construct: from tissue; host or cells: Hartley guinea pig isolated perfused heart
T2 sequence (P47745 1-326): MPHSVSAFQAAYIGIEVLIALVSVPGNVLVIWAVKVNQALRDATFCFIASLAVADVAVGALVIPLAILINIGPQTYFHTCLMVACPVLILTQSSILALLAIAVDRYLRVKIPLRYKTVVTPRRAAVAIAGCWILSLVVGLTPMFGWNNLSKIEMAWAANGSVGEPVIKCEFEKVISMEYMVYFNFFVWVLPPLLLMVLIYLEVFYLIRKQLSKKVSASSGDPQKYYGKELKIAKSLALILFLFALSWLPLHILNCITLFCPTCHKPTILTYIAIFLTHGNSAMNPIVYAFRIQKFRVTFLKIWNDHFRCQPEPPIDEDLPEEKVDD
Briefly: Stimulus-to-His-bundle (S-H) interval in guinea pig isolated perfused hearts. The following applies: concentrations as high as 50 μM. How it is done:
as §1, §2
The effects of Compound 18 on coronary conductance (A2A effect) and atrioventricular conduction time or stimulus-to-His-bundle (S-H) interval (A1 effect) was then determined. […] In each experiment, concentration-response relationship of Compound 18 (n=5 rats, 5 guinea pigs) to increase coronary conductance and to prolong A-V conduction time or S-H interval was determined. […]

Another assay deals with T3, human A1 AdoR (Homo sapiens, UniProt P30542).
T3 construct: expressed in transfected cells
T3 sequence (P30542 1-326): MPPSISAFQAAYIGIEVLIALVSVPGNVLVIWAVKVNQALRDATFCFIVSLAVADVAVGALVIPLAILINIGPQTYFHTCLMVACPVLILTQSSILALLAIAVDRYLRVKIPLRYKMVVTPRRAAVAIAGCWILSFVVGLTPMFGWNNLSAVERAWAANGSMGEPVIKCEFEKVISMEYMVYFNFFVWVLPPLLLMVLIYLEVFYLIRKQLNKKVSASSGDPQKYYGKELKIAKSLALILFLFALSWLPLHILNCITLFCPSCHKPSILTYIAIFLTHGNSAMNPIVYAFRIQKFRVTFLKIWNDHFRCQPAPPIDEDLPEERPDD
The assay can be described thus: Competition binding, [3H]DPCPX binding sites on CHO-hA1AdoR cell membranes. To be noted: Gpp(NH)p 100 μM.

Read-outs that look alike come from different tables or passages of the source.

A2A AdoR (Rattus norvegicus, UniProt P30543), sequence (P30543 whole entry, the tested form may be a part): as the sequence (P30543 whole entry, the tested form may be a part) above
human A2A AdoR, sequence (P29274 whole entry, the tested form may be a part): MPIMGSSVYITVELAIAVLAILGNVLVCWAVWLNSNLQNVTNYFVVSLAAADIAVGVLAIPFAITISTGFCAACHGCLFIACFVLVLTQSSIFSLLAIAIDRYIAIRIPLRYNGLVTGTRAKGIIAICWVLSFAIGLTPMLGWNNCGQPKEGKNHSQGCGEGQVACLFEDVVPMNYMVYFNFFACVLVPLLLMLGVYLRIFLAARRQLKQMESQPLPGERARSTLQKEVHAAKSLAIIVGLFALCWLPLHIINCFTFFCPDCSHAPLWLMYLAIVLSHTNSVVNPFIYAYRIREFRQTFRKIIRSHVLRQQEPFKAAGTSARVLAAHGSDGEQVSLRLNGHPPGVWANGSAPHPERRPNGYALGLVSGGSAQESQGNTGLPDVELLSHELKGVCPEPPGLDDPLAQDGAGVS
A2A AdoR (Cavia porcellus, UniProt P46616), sequence (P46616 whole entry, the tested form may be a part): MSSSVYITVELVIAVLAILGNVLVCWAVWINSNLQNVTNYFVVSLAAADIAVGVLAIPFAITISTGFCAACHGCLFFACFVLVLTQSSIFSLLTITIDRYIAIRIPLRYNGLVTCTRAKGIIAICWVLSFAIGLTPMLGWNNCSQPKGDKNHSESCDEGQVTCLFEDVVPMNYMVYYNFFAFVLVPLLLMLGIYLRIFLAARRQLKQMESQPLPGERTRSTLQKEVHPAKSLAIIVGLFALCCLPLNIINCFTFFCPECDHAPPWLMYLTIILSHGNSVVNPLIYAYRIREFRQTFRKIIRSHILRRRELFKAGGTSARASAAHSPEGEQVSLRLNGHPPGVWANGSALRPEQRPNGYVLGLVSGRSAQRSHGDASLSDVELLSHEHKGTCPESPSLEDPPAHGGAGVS
A2A receptor, sequence (K9IW67 1-409): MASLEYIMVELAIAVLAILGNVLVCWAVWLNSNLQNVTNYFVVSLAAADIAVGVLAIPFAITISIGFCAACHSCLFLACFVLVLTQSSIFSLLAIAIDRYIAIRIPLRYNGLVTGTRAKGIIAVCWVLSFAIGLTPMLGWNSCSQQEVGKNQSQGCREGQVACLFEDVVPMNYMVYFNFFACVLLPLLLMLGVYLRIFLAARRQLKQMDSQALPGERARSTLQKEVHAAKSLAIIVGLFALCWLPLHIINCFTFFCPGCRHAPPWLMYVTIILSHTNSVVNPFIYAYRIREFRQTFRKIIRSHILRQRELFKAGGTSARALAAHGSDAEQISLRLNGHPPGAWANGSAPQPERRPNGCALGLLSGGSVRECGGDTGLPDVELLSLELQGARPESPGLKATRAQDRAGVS
Method for A2A adenosine receptor: Animals were anesthetized by peritoneal injection of a cocktail containing ketamine and xylazine (ketamine 100 mg, xylazine 20 mg/ml). The chest was opened and the heart quickly removed. The heart was briefly rinse in ice-cold Krebs-Henseleit solution (see below), and the aorta cannulated. […] The heart was electrically paced at a fixed cycle length of 340 ms (250 beats/min) using a bipolar electrode place on the left atrium. The electrical stimuli were generated by a Grass stimulator (Model S48, W. Warwick, R.I) and delivered through a Stimuli Isolation Unit (Model SIU5, Astro-Med, Inc., NY) as square-wave pulses of 3 msec in duration and amplitude of at least twice the threshold intensity.
Coronary perfusion pressure (CPP) was measured using a pressure transducer, connected to the aortic cannula via a T-connector positioned approximately 3 cm above the heart. Coronary perfusion pressure was monitored throughout the experiment and recorded either on a chart recorder (Gould Recorder 2200S) or a computerized recording system (PowerLab/4S, ADInstruments Pty Ltd, Australia). Only hearts with CPP ranging from 60 to 85 mmHg (in the absence of drugs) were used in the study.
Protocol: Bolus injections. […] The times to 50% (t 0.5) and 90% (t 0.9) reversal of the decrease in CPP were measured. Each heart was exposed to a maximum of three vasodilators.
Method for human A2A AdoR: To make membranes, cells were detached from the culture plates into ice-cold 50 mmol/L Tris-HCI buffer (pH7.4). The cell suspensions were homogenized with Polytron at setting 4 for 30 seconds, and spun at 48,000 g for 15 minutes. The pellets were washed three times by re-suspension in ice-cold Tris-HCI buffer and centrifugation. The final pellet was re-suspended in a small volume of Tris-HCI, aliquoted and frozen at −80° C. until used for receptor binding assays. The protein concentration of membrane suspensions was determined using the Bradford method (Bio-Rad) with bovine serum as standards.
At the end of incubation, bound and free radioligands were separated by filtration through Whatman GF/C glass fiber filters using a Brandel tissue harvester (Gaithersburg, Md.). Triplicate determinations were performed for each concentration of the competing agent.
The affinity (Ki) of various CVT compounds for the A1 and A2A adenosine receptor were determined by their potency to compete for [^3H]CPX (A1) or [^3H]ZM241385 (A2A) binding sites on membranes derived from CHO-hA1AdoR, PC12 or HEK-HA2AAdoR cells.

On to `CCCCCn1cc(-c2nc(N)c3ncn([C@@H]4O[C@H](CO)[C@@H](O)[C@H]4O)c3n2)cn1` [Compound 18, (4S,2R,3R,5R)-2-[6-amino-2-(1-pentylpyrazol-4-yl)purin-9 yl]-5-(hydroxymethyl)oxolane-3,4-diol], for which the EC50 (usually the concentration at which the effect is half-maximal) at A2A AdoR [1] turned out to be 0.203 ± 0.022 µM; at A2A AdoR [3] (EC50 to increase coronary conductance in rat hearts, Example 7, n=5 rats), 0.0689 ± 0.0096 µM; on A2A AdoR [3] (Potency (EC50) to increase coronary conductance, Rat, rat isolated perfused hearts, Table 3), 0.0679 ± 0.0167 µM. Besides, the “t 0.5, time to 50% reversal of the increase in coronary conductance” value on A2A adenosine receptor came out at 3.4 ± 0.5 min. Also, the “t 0.9, time to 90% reversal of the increase in coronary conductance” value on A2A adenosine receptor came out at 8.4 ± 2.2 min. At human A2A AdoR (A2A vs A1 AdoR), the “greater affinity for A2A than A1 AdoR” value was more than 2 fold. In addition, the Ki was 2.9 µM on human A2A AdoR (Binding Affinity Ki); 2.88 µM on human A2A AdoR (Binding Affinity pKi ± SEM); 7.09 ± 0.78 µM at A2A receptor; 5.84 µM at human A1 AdoR (read-out: Binding Affinity Ki, CHO-hA1AR); 5.75 µM at human A1 AdoR (read-out: Binding Affinity pKi ± SEM, CHO-hA1AR (converted)). Further, the “CBF ("Fold Increase") above baseline, maximal” value in the assay on A2A AdoR [2] worked out at 3.33 ± 0.58 fold. The “t0.5, time to 50% reversal of the increase in coronary blood flow” value in the assay with A2A AdoR [2] is reported as 3.1 ± 0.9 min. In addition, the “t0.9, time to 90% reversal of the increase in coronary blood flow” value with A2A AdoR [2] is on record as 12.0 ± 1.0 min. The “effect on coronary conductance” value at A2A AdoR [3] (isolated perfused hearts (36 rats and 18 guinea pigs), atrial cycle length 340 msec) is “concentration-dependent increase”. Besides, the “relative potency in increasing coronary conductance” value at A2A AdoR [3] (isolated perfused hearts, rat and guinea pig) was “about as potent as adenosine”. Besides, the “effect on A-V nodal conduction time” value on A1 AdoR [4] is on record as “did not prolong”. Moreover, the “agonist efficacy to cause coronary vasodilation” value with A2A AdoR [5] is on record as “full agonists”. This compound also gave a less potent than the prototypical agonist CGS21680 in the assay on A2A AdoR [5] (relative to CGS21680) of 10 fold. Further, the “effect on S-H interval” value at A1 AdoR [6] was “no prolongation”.
On to `OC[C@H]1OC(n2cnc3c(N[C@@H]4CCOC4)ncnc32)[C@H](O)[C@@H]1O` (stereo partly drawn) [CVT510, 2-{6-[((3R)oxolan-3-yl)amino]purin-9-yl}(4S,3R,5R)-5-(hydroxymethyl)oxolane-3,4-diol, reference compound], for which the “effect on A-V nodal conduction time” value at A1 AdoR [4] is on record as “significantly prolonged”.
